From patent US5691365A, “Nicotinic receptor antagonists in the treatment of neuropharmacological disorders” (University of Kentucky Research Foundation, priority 1995, dated 1997)
Several values for one entry are separate records, joined by “and”; a condition that tells them apart may be missing. Identical values can stand only once. Entries after “also recorded” stand apart in the source; their conditions may differ.

Experiments:
[1] = system: [^3 H]DA release from rat striatal slices; assay: [3H]DA release assay: compound-evoked (intrinsic agonist) release; type: cell-based; design: key to total [3H]overflow (effect on [3H]DA release): summed increase in fractional release (sample tritium / tissue tritium); details: for total [3H]overflow (effect on [3H]DA release): mean ± S.E.M.; for total [3H]overflow (effect on [3H]DA release) / effect on [3H]DA release / intrinsic agonist activity (in words): rat striatal slices
Method: (§1) Biological Methods. Male Spragua-Dawley rats (150-200 g) were obtained from Harlan Laboratories (Indianapolis, Ind.) and were housed two per cage with free access to food and water in the Division of Lab Animal Resources at the College of Pharmacy at the University of Kentucky. Experimental protocols involving the animals were approved by the Institutional Animal Care and Use Committee at the University of Kentucky.
(§2) [^3 H]DA Release Assay. Rat striatal slices (500 μm thickness, 6-8 mg wet weight) were obtained as previously described (Dwoskin and Zahniser, 1986). Slices were incubated for 30 min in Krebs' buffer ([…]; 118 NaCl, 4.7 KCl, 1.2 MgCl2, 1.0 NaH2 PO4, 1.3 CaCl2, […], 11.1 glucose, 25 NaHCO3, 0.11 L-ascorbic acid nd 0.004 disodium EDTA; pH 7.4 and saturated with 95% O2 /5% CO2) in a metabolic shaker at 34°. Slices were rinsed with 15 ml of fresh buffer and incubated for an additional 30 min in fresh buffer containing 0.1 μM [^3 H]dopamine (6 slices/3 ml). Subsequently, slices were rinsed with 15 ml of fresh buffer and transferred to a glass superfusion chamber. Slices were superfused (1.0 ml/min) for 60 min with Krebs' buffer containing nomifensine (10 μm) and pargyline (10 μm) and maintained at 34° C., pH 7.4 with continual aeration (95% O2 /5% CO2). Two 5-min samples (5 ml) were collected to determine basal outflow of [^3 H]DA. N-Substituted nicotine analogues were added to the superfusion buffer after the collection of the second sample and remained in the buffer until 12 consecutive 5-min samples were collected. […] At the end of the experiment each slice was solubilized and the [^3 H] content of the tissue determined.
(§3) Radioactivity in the superfusate and tissue samples was determined by liquid scintillation spectroscopy. Fractional release for each superfusate sample was calculated by dividing the total tritium collected in each sample by the total tritium present in the tissue at the time of sample collection. Basal [^3 H]out flow was calculated from the average of the tritium collected in the two 5-min samples just before addition of the N-substituted nicotine analogue. The sums of the increase in collected tritium resulting from either exposure to the test compound or exposure to nicotine in the absence and presence of the test compound equaled total [^3 H]overflow. [^3 H]overflow was calculated by subtracting the [^3 H]outflow during an equivalent period of prestimulation from the values in samples collected during and after drug exposure. Inasmuch as the radiolabelled compounds were not separated and identified, the tritium collected in superfusate is referred to as either [^3 H]outflow or [^3 H]overflow, rather than as [^3 H]DA. [^3 H]Overflow primarily represents [^3 H]DA in the presence of nomifensine and pargyline in the superfusion buffer (Zumstein et al. 1981).

[2] = system: S(-)nicotine (10 μM)-evoked [^3 H]DA release from rat striatal slices; type: cell-based
Method: as §1, §2, §3
In these experiments, the striatal slices were superfused for 60 min with various concentrations of the analogues prior to nicotine (10 μM) exposure. Antagonist activity was evaluated by comparing the nicotine-evoked [^3 H]overflow in the absence and presence of the analogues. […] The relative order of potency of the classical and pyridine-N substituted nicotine analogues for inhibition of nicotine-evoked [^3 H]DA release from rat striatal slices is illustrated in FIG. 2 by a comparison of their IC50 values.
FIG. 2. IC50 values for N-substituted analogues of nicotine, nornicotine, and cotinine to inhibit nicotine-evoked [^3 H]DA release from rat striatal slices. Inhibition produced by the classical nicotinic inhibitors, mecamylamine (MEC) and DHBE was also determined. Slices were superfused with inhibitor for 60 min […] co-superfusion with 10 μM nicotine. Inhibition was determined by comparing [^3 H]DA release in the absence and presence of various concentrations of inhibitor. IC50 values were determined using the Logit-log plot (pseudo-Hill plot). […] IC50 for each animal was determined as the intercept of the linear regression.

[3] = Rattus norvegicus, read-out: evoked [3H]DA release relative to S(-)nicotine

Compound | total [3H]overflow (effect on [3H]DA release) ([1]; Table 3, 1 μM) | total [3H]overflow (effect on [3H]DA release) ([1]; Table 3, 10 μM) | total [3H]overflow (effect on [3H]DA release) ([1]; Table 3, 100 μM) | nicotinic antagonist activity / inhibition of nicotine-evoked [3H]DA release (in words) [2] | relative order of potency for inhibition of nicotine-evoked [3H]DA release (comparison of IC50 values) [2] | effect on [3H]DA release / intrinsic agonist activity (in words) ([1]; 1-100 μM) | other results
CN1CCC[C@H]1c1ccc[n+](CCO)c1 [NHENI, S-N-hydroxyethyl nicotinium iodide] | 0.00 ± 0.00 | 0.00 ± 0.00 | 0.08 ± 0.04 | Significant antagonist activity; also recorded: preferred nicotinic receptor antagonist activity | NHENI>>>(±)di-N-allyl nicotinium iodide (DNANI) | – | –
CCCCCCCC[n+]1cccc([C@@H]2CCCN2C)c1 [NONI, S-N-octylnicotinium iodide] | 0.03 ± 0.02 | 0.14 ± 0.14 | 16.4 ± 2.00 | Significant antagonist activity; also recorded: completely inhibited nicotine-evoked [^3 H]DA release; also recorded: Greatest antagonist potency; also recorded: preferred nicotinic receptor antagonist activity; also recorded: most efficacious and potent compound in the series; also recorded: completely blocked the effect of nicotine to evoke [^3 H]DA release | NONI>>DHBE=MEC | possessed intrinsic agonist activity at this high concentration; also recorded: did not possess agonist activity at concentrations which completely blocked nicotine-evoked [^3 H]DA release | agonist activity relative to nicotine [1]: three-times the agonist activity of nicotine; effect on [3H]DA release / intrinsic agonist activity (in words) ([1]; 1-100 μM, listed as HONI): evoked [^3 H]DA release and thus, possess intrinsic agonist activity at this concentration; potency relative to mecamylamine and dihydro-β-erythroidine [2]: approximately half that of the classical nicotinic antagonists; concentration for intrinsic agonist activity relative to that required to completely inhibit nicotine-evoked [3H]DA release ([2]; fold higher): 10 fold
CN1CCC[C@H]1c1ccc[n+](C)c1 [NMNI] | 0.13 ± 0.11 | 0.17 ± 0.10 | 0.08 ± 0.06 | did not exhibit significant nicotinic antagonist activity over the concentration range tested; also recorded: no antagonistic activity; also recorded: devoid of antagonist activity | NMNI=S-N-methylcotininium iodide (NMCI)=S-N'-methyl nicotinium iodide (PIPNMN) | – | –
CN1C(=O)CC[C@H]1c1ccc[n+](C)c1 [NMCI, S-N-methylcotininium iodide] | 0.00 ± 0.00 | 0.01 ± 0.01 | 0.02 ± 0.01 | did not exhibit significant nicotinic antagonist activity over the concentration range tested; also recorded: devoid of antagonist activity | NMNI=S-N-methylcotininium iodide (NMCI)=S-N'-methyl nicotinium iodide (PIPNMN) | – | total [3H]overflow during cosuperfusion with 10 μM nicotine [2]: 3.11 ± 1.32 and 3.11 ± 1.20 and 3.75 ± 1.66
C[N+]1(C)CCC[C@H]1c1cccnc1 [PIPNMN, S-N'-methyl nicotinium iodide] | 0.03 ± 0.03 | 0.01 ± 0.01 | 0.05 ± 0.02 | did not exhibit significant nicotinic antagonist activity over the concentration range tested | NMNI=S-N-methylcotininium iodide (NMCI)=S-N'-methyl nicotinium iodide (PIPNMN) | – | total [3H]overflow during cosuperfusion with 10 μM nicotine [2]: 3.16 ± 1.46 and 2.98 ± 1.48 and 1.88 ± 0.77
CO[C@H]1CC=C2CCN3CCC4=C(CC(=O)OC4)[C@]23C1 [DHBE, dihydro-β-erythroidine, reference compound] | 0.02 ± 0.02 | 0.36 ± 0.22 | 2.01 ± 0.28 | inhibited but did not completely block nicotine's effect | DHBE=MEC>>NBNB | None of the compounds examined, including DHBE and mecamylmine, had any significant effect on [^3 H]DA release in the concentration range of 1-10 μM; also recorded: also evoked [^3 H]DA release; also recorded: evoked [^3 H]DA release at the highest concentration examined | –
c1cncc([C@@H]2CCCN2)c1 (racemic) [(±)nornicotine, racemic nornicotine, reference compound] | – | – | – | – | – | – | Emax [1, 3]: ~80%; Emax at 1 µM [1, 3]: 50%; total [3H]overflow (effect on [3H]DA release) ([1]; Table 2, 1 μM): 1.40 ± 0.24; total [3H]overflow (effect on [3H]DA release) ([1]; Table 2, 10 μM): 2.60 ± 0.38; total [3H]overflow (effect on [3H]DA release) ([1]; Table 2, 100 μM): 4.20 ± 0.34; effect on [3H]DA release / intrinsic agonist activity (in words) ([1]; 1-100 μM as stated, listed as Racemic nornicotine): concentration-dependent increase in [^3 H]DA release; effect on [3H]DA release / intrinsic agonist activity (in words) ([1]; 1-100 μM as stated, listed as nornicotine): less potent in producing this effect
CNC1(C)C2CCC(C2)C1(C)C (stereo not drawn) [MEC, mecamylamine, reference compound] | 0.00 ± 0.00 | 0.00 ± 0.00 | 0.00 ± 0.00 | inhibited but did not completely block nicotine's effect | DHBE=MEC>>NBNB | None of the compounds examined, including DHBE and mecamylmine, had any significant effect on [^3 H]DA release in the concentration range of 1-10 μM | –
CN1C(=O)CC[C@H]1c1cccnc1 [S(-)cotinine, reference compound] | – | – | – | – | – | – | Emax [1, 3]: 35%; total [3H]overflow (effect on [3H]DA release) ([1]; Table 2, 1 μM): 0 ± 0; total [3H]overflow (effect on [3H]DA release) ([1]; Table 2, 10 μM): 1.14 ± 0.36; total [3H]overflow (effect on [3H]DA release) ([1]; Table 2, 100 μM): 2.06 ± 0.35; effect on [3H]DA release / intrinsic agonist activity (in words) ([1]; 1-100 μM as stated, listed as Cotinine): no effect at 1 μM; effect on [3H]DA release / intrinsic agonist activity (in words) ([1]; 1-100 μM as stated, listed as S(-)Cotinine): little effect even at high concentrations in the DA release assay
